The record followed here is patent publication US9284283B2, “Macrocyclic compounds for modulating IL-17” (ENSEMBLE THERAPEUTICS CORPORATION, priority 2012, dated 2016).

Bounds are passed on as bounds.

For this assay, the target named is T1, recombinant human IL17a (binding to its receptor IL17R) (Homo sapiens, UniProt Q16552).
T1 construct: purchased R&D Systems 317-ILB (IL17a); 177-IR (IL17R/Fc)
T1 sequence (Q16552 20-155 limits assumed): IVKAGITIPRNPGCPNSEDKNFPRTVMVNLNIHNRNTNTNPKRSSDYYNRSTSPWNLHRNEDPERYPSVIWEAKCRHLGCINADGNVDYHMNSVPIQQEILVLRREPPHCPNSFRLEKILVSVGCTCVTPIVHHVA
Briefly: IL-17 competition ELISA I (IL17a coated, IL17R/Fc binding). Here is the method: ELISA I: The ability of the compounds to block binding of IL17a to its receptor, IL17R, was analyzed in a competition ELISA format. High binding 96-well plates (Costar #9018) were coated with 20 nM of recombinant human IL17a (R&D Systems #317-ILB) in PBS (0.64 μg/mL), 100 μL/well, for 30 min at 37′C followed by 5 min at 4′C. Plates were then washed in PBST (PBS/0.05% Tween-20) on a plate washer, (Biotech EL-450) blocked with protein-free blocking buffer (Thermo Scientific #37573) in 250 μL/well for 30 min on shaker at room temperature, and then washed again. Compound dilutions prepared in PBST were added into the wells in duplicates followed by the addition of IL17R/Fc (R&D Systems #177-IR) at a final concentration of 12 nM. Plates were then incubated for 30 min at room temperature on the shaker. Wells with no compound served as a positive “no competitor” control, while wells with no IL17R/Fc and no compound served as a blank negative control. After an additional PBST wash, 50 ng/mL HRP-conjugated goat anti-human Fc IgG (KPL #04-10-20) was added to the plate for 30 min at room temperature, followed by PBST wash and addition of SureBlue™ TMB (KPL #52-00-03). After the sufficient color development, the reaction was fixed by the addition of 100 μL/well 0.5 N HCl and absorbance was measured at 450 nm on Biotek plate reader.
Data were processed using BioAssay Enterprise v10.1.4 (CambridgeSoft) software. Linear OD λ450 were plotted against log concentration (x) and fitted to a 4-parameter logistic equation. IC50 was calculated using positive ‘no competitor’ control data as an upper limit and blank control as a lower limit in each assay.
On the technique in general: In an ELISA, binding on a coated surface is turned into a signal by an enzyme label.
Regarding `O=C1CNC(=O)[C@@H](Cc2ccc(NC(=O)[C@H](Cc3ccccc3Cl)NC(=O)Cc3ccc(F)c(F)c3)cc2)NC(=O)CC2(CCCC2)CC(=O)NCCCCCN1` [Compound 298], the IC50 was less than 100 nM. Then `O=C1CNC(=O)[C@@H](Cc2ccc(NC(=O)[C@H](Cc3ccccc3Cl)NC(=O)C3CCOCC3)cc2)NC(=O)CC2(CCCC2)CC(=O)NCCCCCN1` [Compound 220], with 100 to 1000 nM; and `C=CCOC(=O)N1CCNC(=O)CNC(=O)[C@@H](Cc2ccc(NC(=O)[C@H](Cc3ccccc3Cl)NC(=O)Cc3ccccc3)cc2)NC(=O)CC2(CCCC2)CC(=O)NCC1` [Compound 284], with 100 to 1000 nM; and `O=C1CNC(=O)[C@@H](Cc2ccc(NC(=O)[C@H](Cc3ccccc3Cl)NC(=O)CC3CCOCC3)cc2)NC(=O)CC2(CCCC2)CC(=O)NCCCCCN1` [Compound 275], with 100 to 1000 nM.

`O=C1CNC(=O)[C@@H](Cc2ccc(NC(=O)[C@H](Cc3ccccc3)NC(=O)Cc3ccccc3)cc2)NC(=O)CC2(CCCC2)CC(=O)NCCCCCN1` [Compound 237]: the IC50 is less than 100 nM.

Turning to `O=C1CNC(=O)[C@@H](Cc2ccc(NC(=O)[C@H](Cc3ccccc3Cl)NC(=O)Cc3ccc(O)cc3)cc2)NC(=O)CC2(CCCC2)CC(=O)NCCCCCN1` [Compound 279], the 50% inhibitory concentration (IC50) is less than 100 nM. For the compound `C[C@@H](O)[C@@H]1NC(=O)[C@@H](Cc2ccc(NC(=O)[C@H](Cc3ccccc3Cl)NC(=O)Cc3ccccc3)cc2)NC(=O)CC2(CCCC2)CC(=O)NCCCCCNC1=O` [Compound 321], the IC50 was 100 to 1000 nM. Consider `O=C1CNC(=O)[C@@H](Cc2ccc(NC(=O)[C@H](Cc3ccccc3Cl)NC(=O)Cc3cccc(O)c3)cc2)NC(=O)CC2(CCCC2)CC(=O)NCCCCCN1` [Compound 217], for which the IC50 was less than 100 nM.

In the case of `COCC(=O)N[C@@H](Cc1ccccc1Cl)C(=O)Nc1ccc(C[C@H]2NC(=O)CC3(CCCC3)CC(=O)NCCCCCNC(=O)CNC2=O)cc1` [Compound 234], the IC50 was in the range of 100 to 1000 nM. For the compound `CN1CCCCCNC(=O)CC2(CCCC2)CC(=O)N[C@H](Cc2ccc(NC(=O)[C@@H](NC(=O)Cc3ccc(CO)cc3)C3CCCCC3)cc2)C(=O)NCC1=O` [Compound 351], the IC50 lay in the range of 100 to 1000 nM. In the case of `O=C1CNC(=O)[C@@H](Cc2ccc(NC(=O)[C@H](Cc3ccc(Cl)c(Cl)c3)NC(=O)Cc3ccccc3)cc2)NC(=O)CC2(CCCC2)CC(=O)NCCCCCN1` [Compound 241], the IC50 lay within 100 to 1000 nM.

As to `CN(C(=O)Cc1ccccc1)[C@@H](Cc1ccccc1)C(=O)Nc1ccc(C[C@H]2NC(=O)CC3(CCCC3)CC(=O)NCCCCCNC(=O)CNC2=O)cc1` [Compound 238], the IC50 was in the range of 1000 to 10000 nM. On to `O=C1CNC(=O)[C@@H](Cc2ccc(NC(=O)[C@H](Cc3ccc(Cl)cc3)NC(=O)Cc3ccccc3)cc2)NC(=O)CC2(CCCC2)CC(=O)NCCCCCN1` [Compound 240], for which the concentration for half-maximal inhibition (IC50) was less than 100 nM. `COC(=O)[C@@H]1CCCCNC(=O)CNC(=O)[C@@H](Cc2ccc(NC(=O)[C@H](Cc3ccccc3Cl)NC(=O)c3cccnc3)cc2)NC(=O)CC2(CCCC2)CC(=O)N1` [Compound 250]: the concentration for half-maximal inhibition (IC50) is less than 100 nM. Turning to `O=C1CNC(=O)[C@@H](Cc2ccc(NC(=O)[C@H](Cc3ccccc3Cl)NC(=O)c3ccc(O)c(F)c3)cc2)NC(=O)CC2(CCCC2)CC(=O)NCCCCCN1` [Compound 277], the half-maximal inhibitory concentration (IC50) lay in the range of 100 to 1000 nM. Then `CC1(C)CC(=O)NCCCCCNC(=O)CNC(=O)[C@@H](Cc2ccc(NC(=O)[C@H](CC3CC3)NC(=O)Cc3ccccc3)cc2)NC(=O)C1` [Compound 245], with 1000 to 10000 nM; and `CN1CCCCCNC(=O)CC2(CCCC2)CC(=O)N[C@H](Cc2ccc(NC(=O)[C@H](Cc3ccccc3Cl)NC(=O)Cc3ccccc3)cc2)C(=O)NCC1=O` [Compound 281], with less than 100 nM; and `CC1(C)CC(=O)NCCCCCNC(=O)CNC(=O)[C@@H](Cc2ccc(NC(=O)[C@H](Cc3cccs3)NC(=O)Cc3ccc(O)cc3)cc2)NC(=O)C1` [Compound 257], with 100 to 1000 nM. Consider `CC(=O)N[C@@H](Cc1cccs1)C(=O)Nc1ccc(C[C@H]2NC(=O)CC(C)(C)CC(=O)NCCCCCNC(=O)CNC2=O)cc1` [Compound 256], for which the half-maximal inhibitory concentration (IC50) is more than 10000 nM.

By IC50 is commonly meant the midpoint of a concentration-inhibition curve.
